In patent US10172549B2, “Methods of facilitating positioning of electrodes” (Cardionomic, Inc., priority 2016, dated 2019):

System: right ventricle contractility and left ventricle contractility
Test: Heartbeat-by-heartbeat correlation of right and left ventricle contractility after a change, max(dP/dt) from pressure sensors as surrogate for contractility
Format: in vivo, ovine
Conditions: after injection
From the text: The correlation was a heartbeat-by-heartbeat analysis. Pressure measurements, taken by a Millar catheter comprising a MEMS pressure sensor, in units of max(dP/dt) was used as a surrogate for contractility.
The first change, a dobutamine injection, provided a very high contractility increase greater than 500%. The average correlation between right ventricle contractility and left ventricle contractility was very good at 0.91, where 1.00 is a perfect correlation. Accordingly, if a subject is given a dobutamine injection, measuring changes to right ventricle contractility can provide accurate information about changes to left ventricle contractility. The first change was repeated three times.
The second change, calcium injection at 5 mL, provided a contractility increase of about 20%. […] The average correlation between right ventricle contractility and left ventricle contractility using a Millar (MEMS) sensor on a catheter was very good at 0.91. The average correlation between right ventricle contractility and left ventricle contractility using a fluid-filled lumen of a Swan-Ganz catheter in communication with an external pressure sensor was also very good at 0.87. Accordingly, under certain circumstances such as measurement of an animal (normal, non-HF ovine model) model, if a subject is given a calcium injection, measuring changes to right ventricle contractility with a MEMS sensor or a fluid filled lumen can provide accurate information about changes to left ventricle contractility.
The fourth change, neurostimulation as described herein, provided a contractility increase of about 28%. The correlation between right ventricle contractility and left ventricle contractility was very good at 0.90. Accordingly, if a subject is given neurostimulation, measuring changes to right ventricle contractility can provide accurate information about changes to left ventricle contractility. […] Thereafter, the left ventricle contractility tapered off logarithmically or exponentially, but the right ventricle contractility decreased very slowly. These differences help to show why the correlation between left ventricle contractility and right ventricle contractility are poorly correlated for calcium injections. The fourth change was not repeated.

Row | Compound | Contractility % Increase [%] | Contractility % Increase (listed as dobutamine injection) | Contractility % Increase (listed as calcium injection)
1 | CC(CCc1ccc(O)cc1)NCCc1ccc(O)c(O)c1 (stereo not shown) [Dobutamine Injection, dobutamine] | >500 | greater than 500% | 
2 | calcium [Calcium Injection] | ~20 |  | about 20%
